# Earlier results as cited in patent publication US8148337B2, “Vaginal compositions for treating pelvic tissue infections and traumas” (priority 2003, dated 2012).
# Columns and labels:
# [1] = administered rectally
# chlamydial infection = conditions: orally as a single dose
smiles,measurement,setting,value
CC[C@H]1OC(=O)[C@H](C)[C@@H](O[C@H]2C[C@@](C)(OC)[C@@H](O)[C@H](C)O2)[C@H](C)[C@@H](O[C@@H]2O[C@H](C)C[C@H](N(C)C)[C@H]2O)[C@](C)(O)C[C@@H](C)CN(C)[C@H](C)[C@@H](O)[C@]1(C)O [azithromycin],bioavailability,[1],highly variable and low
same,women who experience side effects,chlamydial infection,25%
